From patent US10174011B2, “Heterocyclic compounds, process for preparation of the same and use thereof” (SHANGHAI INSTITUTE OF MATERIA MEDICA, CHINESE ACADEMY OF …, priority 2014, dated 2019)
Like-named read-outs stand apart in the source and are kept apart here.

What was measured:
[1] = test system: PCP-induced hyperactivity in mice; experiment: In vivo efficacy test (PCP-induced high locomotor activity in mice); conditions: male ICR mice, oral administration 45 minutes before PCP 7 mg/kg i.p.; dose significantly reducing PCP-induced hyperactivity vs model group
Protocol: 5) In Vivo Efficacy Test (PCP-Induced High Locomotor Activity in Mice)
PCP solution was prepared in a suitable concentration for 7 mg/kg dosage with saline. […] Male ICR mice (18-22 g) were used as test animals. All the test mice were randomly divided into vehicle control group, model control group, positive control group, and treatment group(8 mice per group). Mice of each group were orally administered test compounds or vehicle. After 45 minutes PCP solution was administered (7 mg/kg) through intraperitoneal injection. The mice track after drug or saline administration was recorded and analyzed by the spontaneous, open-field video analysis system. […] The mice track was recorded and analyzed by the spontaneous, open-field video analysis system. The total distance in each group was calculate and expressed as mean+SD and statistical evaluation was performed by one way ANOVA.

[2] = biological target: human recombinant 5-HT1A receptor (Homo sapiens (Human), UniProt P08908); experiment: 5-HT1A receptor agonism activity test (inhibition of cAMP production, LANCE cAMP 384 Kit); assay type: cell-based; conditions: HEK293 cells expressing human recombinant 5-HT1A receptor; test concentration 0.1 nM-10000 nM; read-out: 5-HT1A receptor agonism (EC50, mol/L)
Chain of human recombinant 5-HT1A receptor (P08908 whole entry): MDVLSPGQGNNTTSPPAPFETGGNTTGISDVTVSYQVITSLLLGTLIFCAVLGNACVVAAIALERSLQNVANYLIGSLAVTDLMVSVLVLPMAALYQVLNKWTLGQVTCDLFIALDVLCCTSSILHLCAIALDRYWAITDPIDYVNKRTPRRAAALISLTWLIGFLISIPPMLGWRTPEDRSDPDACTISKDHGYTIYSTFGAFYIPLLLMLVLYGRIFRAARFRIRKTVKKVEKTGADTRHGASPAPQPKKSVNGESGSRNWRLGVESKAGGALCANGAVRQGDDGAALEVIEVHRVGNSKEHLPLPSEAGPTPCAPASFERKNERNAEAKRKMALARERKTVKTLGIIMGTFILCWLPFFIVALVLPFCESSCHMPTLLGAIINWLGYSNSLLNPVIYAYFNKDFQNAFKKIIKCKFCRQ
Text: Pharmacological Test 1) 5-HT1A Receptor Agonism Activity Test

[3] = biological target: human recombinant 5-HT2A receptor (Homo sapiens (Human), UniProt P28223); experiment: 5-HT2A receptor antagonism activity test (FLIPR Calcium 5 Assay Kit); conditions: read-out: 5-HT2A receptor antagonism (IC50, mol/L)
Chain of human recombinant 5-HT2A receptor (P28223 whole entry): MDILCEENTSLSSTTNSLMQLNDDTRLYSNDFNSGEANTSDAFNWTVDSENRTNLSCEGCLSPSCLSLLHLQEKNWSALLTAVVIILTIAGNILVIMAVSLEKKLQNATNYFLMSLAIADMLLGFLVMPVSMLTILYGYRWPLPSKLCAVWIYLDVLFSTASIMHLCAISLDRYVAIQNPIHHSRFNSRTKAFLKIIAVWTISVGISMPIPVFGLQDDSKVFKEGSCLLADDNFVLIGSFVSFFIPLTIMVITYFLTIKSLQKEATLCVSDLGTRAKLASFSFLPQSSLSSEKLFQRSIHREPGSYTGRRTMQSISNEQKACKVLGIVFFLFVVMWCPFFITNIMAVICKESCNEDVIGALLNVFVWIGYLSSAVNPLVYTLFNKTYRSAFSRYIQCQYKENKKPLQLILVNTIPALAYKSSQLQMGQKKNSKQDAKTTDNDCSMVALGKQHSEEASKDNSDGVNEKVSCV

[4] = biological target: human recombinant D2 receptor (Homo sapiens (Human), UniProt P14416); experiment: D2 receptor antagonism activity test (inhibition of dopamine-induced decrease of cAMP production, LANCE cAMP 384 Kit); conditions: read-out: D2 receptor antagonism (IC50, mol/L), HEK293 cells expressing human recombinant D2 receptor, 0.1 nM-10000 nM
Chain of human recombinant D2 receptor (P14416 whole entry): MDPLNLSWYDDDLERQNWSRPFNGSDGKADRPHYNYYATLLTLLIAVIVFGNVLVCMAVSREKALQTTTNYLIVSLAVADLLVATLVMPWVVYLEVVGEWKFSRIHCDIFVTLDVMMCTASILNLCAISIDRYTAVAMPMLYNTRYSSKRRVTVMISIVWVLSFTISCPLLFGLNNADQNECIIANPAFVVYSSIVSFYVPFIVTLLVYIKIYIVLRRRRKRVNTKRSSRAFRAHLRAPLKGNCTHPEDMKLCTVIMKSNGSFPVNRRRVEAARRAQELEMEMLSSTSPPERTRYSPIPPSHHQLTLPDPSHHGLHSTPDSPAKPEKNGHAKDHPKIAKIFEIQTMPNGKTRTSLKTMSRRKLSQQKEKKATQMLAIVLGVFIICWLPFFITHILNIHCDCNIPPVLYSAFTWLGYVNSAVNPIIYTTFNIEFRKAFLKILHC

[5] = CHO-K1 cells expressing human recombinant 5-HT2A receptor, α-methyl-5-hydroxytryptamine 300 nM, 0.1 nM-10000 nM

| SMILES | Effective dose [1] [mg/kg] | EC50 [2] [nM] | IC50 [3, 5] [nM] | IC50 [4] [nM] | IC50 [3] [nM] |
| --- | --- | --- | --- | --- | --- |
| CC(=O)N1CC(CCN2CCN(c3cccc4sccc34)CC2)c2ccccc21.Cl (stereo not drawn) [Compound of example 124, 1-(3-(2-(4-(benzo[b]thiophen-4-yl)piperazin-1-yl)ethyl)indolin-1-yl)ethanone hydrochloride] | 3 |  |  |  |  |
| c1ccc2c(CCN3CCN(c4cccc5sccc45)CC3)c[nH]c2c1 [Compound of example 46, 3-(2-(4-(benzo[b]thiophen-4-yl)piperazin-1-yl)ethyl)-1H-indole] | 1 |  |  |  |  |
| c1cc(N2CCN(CCc3ccc4ncsc4c3)CC2)c2ccsc2c1 [Compound of example 59, 6-(2-(4-(benzo[b]thiophen-4-yl)piperazin-1-yl)ethyl)benzo[d]thiazole] | 0.3 |  |  |  |  |
| O=C1Cc2cc(CCN3CCN(c4cccc5sccc45)CC3)ccc2N1 [Compound of example 8, 5-(2-(4-(benzo[b]thiophen-4-yl)piperazin-1-yl)ethyl)indolin-2-one] | 0.1 to 0.3 |  |  |  |  |
| O=c1ccc2ccc(CCCCCN3CCN(c4cc(F)cc5sccc45)CC3)cc2[nH]1 [Compound of example 71, 7-(5-(4-(6-fluorobenzo[b]thiophen-4-yl)piperazin-1-yl)pentyl)quinolin-2(1H)-one] | 3 |  |  |  |  |
| Cl.O=C1CCc2cc(CCN3CCN(c4cccc5sccc45)CC3)ccc2N1 [Compound of example 47, 6-(2-(4-(benzo[b]thiophen-4-yl)piperazin-1-yl)ethyl)-3,4-dihydroquinolin-2(1H)-one hydrochloride] | 0.3 |  |  |  |  |
| Cl.O=c1[nH]c2ccc(CCN3CCN(c4cccc5sccc45)CC3)cc2s1 [Compound of example 29, 6-(2-(4-(benzo[b]thiophen-4-yl)piperazin-1-yl)ethyl)benzo[d]thiazol-2(3H)-one hydrochloride] | 0.3 |  |  |  |  |
| Cl.O=C1Cc2cc(CCN3CCN(c4cccc5sccc45)CC3)c(Cl)cc2N1 [Compound of example 15, 5-(2-(4-(benzo[b]thiophen-4-yl)piperazin-1-yl)ethyl)-6-chloroindolin-2-one hydrochloride] | 0.1 to 1 |  |  |  |  |
| O=c1ccc2ccc(CCN3CCN(c4cncc5sccc45)CC3)cc2[nH]1 [Compound of example 43, 7-(2-(4-(thieno[2,3-c]pyridin-4-yl)piperazin-1-yl)ethyl)quinolin-2(1H)-one] |  | 1.23 | 286 | 241 |  |
| O=C1CCc2cc(Cl)c(CCN3CCN(c4cccc5sccc45)CC3)cc2N1 [Compound of example 23, 7-(2-(4-(benzo[b]thiophen-4-yl)piperazin-1-yl)ethyl)-6-chloro-3,4-dihydroquinolin-2(1H)-one] |  | 463 | 97.6 | 81.2 |  |
| Cc1nc2n(c(=O)c1CCN1CCN(c3cc(F)cc4sccc34)CC1)CCCC2 [Compound of example 90, 3-(2-(4-(6-fluorobenzo[b]thiophen-4-yl)piperazin-1-yl)ethyl)-2-methyl-6,7,8,9-tetrahydro-4H-pyrido[1,2-a]pyrimidin-4-one] |  | 27.7 | 13.6 | 10.4 |  |
| O=C1CCc2ccc(C(O)CCCCN3CCN(c4cccc5sccc45)CC3)cc2N1 (stereo not drawn) [Compound of example 150, 7-(5-(4-(benzo[b]thiophen-4-yl)piperazin-1-yl)-1-hydroxypentyl)-3,4-dihydroquinolin-2(1H)-one] |  | 15.7 | 108 | 4.54 |  |
| O=c1[nH]c(CCN2CCN(c3cccc4sccc34)CC2)nc2ccccc12 [Compound of example 35, 2-(2-(4-(benzo[b]thiophen-4-yl)piperazin-1-yl)ethyl)quinazolin-4(3H)-one] |  | 41.9 | 21.5 | 216 |  |
| O=C1COc2c(F)cc(CCN3CCN(c4cccc5sccc45)CC3)cc2N1 [Compound of example 139, 6-(2-(4-(benzo[b]thiophen-4-yl)piperazin-1-yl)ethyl)-8-fluoro-2H-benzo[b][1,4]oxazin-3(4H)-one] |  | 0.766 | 104 | 79.6 |  |
| O=C1CCc2ccc(OCCCCN3CCN(c4cccc(Cl)c4Cl)CC3)cc2N1 [aripiprazole, reference compound] | 3 |  |  |  |  |
| CN1Cc2cc(CCN3CCN(c4cccc5sccc45)CC3)ccc2NC1=O [Compound of example 51, 6-(2-(4-(benzo[b]thiophen-4-yl)piperazin-1-yl)ethyl)-3-methyl-3,4-dihydroquinazolin-2(1H)-one] | 1 |  |  |  |  |
| O=C1Cc2cc(CCN3CCN(c4cccc5c4CCS5)CC3)c(Cl)cc2N1 [Compound of example 1, 6-chloro-5-(2-(4-(2,3-dihydrobenzo[b]thiophen-4-yl)piperazin-1-yl)ethyl)indolin-2-one] |  | 3.31 | 227 | 56.9 |  |
| Cl.O=C1CCCc2cc(CCN3CCN(c4cccc5sccc45)CC3)ccc2N1 [Compound of example 49, 7-(2-(4-(benzo[b]thiophen-4-yl)piperazin-1-yl)ethyl)-4,5-dihydro-1H-benzo[b]azepin-2(3H)-one hydrochloride] | 1 |  |  |  |  |
| CN1C(=O)CCc2ccc(CCN3CCN(c4cccc5sccc45)CC3)cc21 [Compound of example 115, 7-(2-(4-(benzo[b]thiophen-4-yl)piperazin-1-yl)ethyl)-1-methyl-3,4-dihydroquinolin-2(1H)-one] |  | 8.52 |  | 29.3 | 53.7 |
| Cn1c(=O)[nH]c2ccc(CCN3CCN(c4cccc5sccc45)CC3)cc21 [Compound of example 86, 6-(2-(4-(benzo[b]thiophen-4-yl)piperazin-1-yl)ethyl)-1-methyl-1H-benzo[d]imidazol-2(3H)-one] |  | 21.6 | 93.3 | 23.5 |  |
| O=C1Cc2cc(CCN3CCN(c4cc(F)cc5sccc45)CC3)ccc2N1 [Compound of example 84, 5-(2-(4-(6-fluorobenzo[b]thiophen-4-yl)piperazin-1-yl)ethyl)indolin-2-one] |  | 0.235 | 17.5 | 10.9 |  |
| CC(=O)Nc1nc2c(CCN3CCN(c4cccc5sccc45)CC3)cccc2s1 [Compound of example 121, N-(4-(2-(4-(benzo[b]thiophen-4-yl)piperazin-1-yl)ethyl)benzo[d]thiazol-2-yl)acetamide] |  | 32 | 41 | 216 |  |
| O=C1Cc2cc(CCN3CCC(c4cccc5sccc45)CC3)c(Cl)cc2N1 [Compound of example 37, 5-(2-(4-(benzo[b]thiophen-4-yl)piperidin-1-yl)ethyl)-6-chloroindolin-2-one] |  | 3.11 | 28.1 | 51.9 |  |
| O=c1[nH]c2ccc(CCN3CCN(c4cccc5sccc45)CC3)cc2[nH]1 [Compound of example 27, 5-(2-(4-(benzo[b]thiophen-4-yl)piperazin-1-yl)ethyl)-1H-benzo[d]imidazol-2(3H)-one] | 0.3 |  |  |  |  |
| Cc1nc2ccc(CCCCCN3CCN(c4cccc5sccc45)CC3)cc2c(=O)[nH]1 [Compound of example 24, 6-(5-(4-(benzo[b]thiophen-4-yl)piperazin-1-yl)pentyl)-2-methylquinazolin-4(3H)-one] |  | 25.9 | 781 | 50.7 |  |
